According to patent US20090203750A1, “5-HT2C Receptor Agonists as Anorectic Agents” (priority 2005, published 2009):
Read-outs that look alike come from different tables or passages of the source.

How the values were obtained:
Assay type in all cases: cell-based
human 5-HT2A receptor = molecular target: T1, human 5-HT2A receptor (Homo sapiens, UniProt P28223); experiment: Functional activity by Ca++-flux (intracellular calcium mobilization), 5-HT2A; settings: Ca++-flux, HEK-293 cells; NA = not active
T1 construct: expressed in transfected cells; host or cells: HEK-293
Description: The functional activity of the compounds for the human 5-HT2A, human 5-HT2B, and human 5-HT2C receptors is determined by measurement of Ca++-flux as detailed in the Examples, in transiently transfected HEK-293 cells and the results are summarized in Table I. Structures of compounds listed in Table I are given in Scheme 15.
(§1) The functional activity of compounds for the human 5-HT2A, human 5-HT2B, and human 5-HT2C receptors as agonists, partial agonists and antagonists is determined by measurement of Ca++-flux. The results are summarized in Table 1 where EC50 for different receptors are given (nM) and the ratio of activities 2A/2C and 2B/2C are also given. As noted above, other methods for assessing agonist/antagonist function of compounds for 5-HT2 family receptors are known in the art.
(§2) For these studies stably expressing lines of h5-HT2A, h5-HT2B, and h5-HT2C receptors are prepared in HEK-293 cells. For the h5-HT2A and h5-HT2C-INI receptors, stably expressing HEK-293 cell lines were constructed as previously described using a pIRES-NEO vector system (See: Rauser et al, J Pharmacol Exp Ther 299: 83-89, 2001).
(§3) Stable cell lines were plated with ˜40,000 cells/well into uncoated (3T3 cells) or poly-L-lysine coated (HEK293 cells) 96-well plates in DMEM supplemented with 5% dialyzed FBS. 16-24 hrs post-plating, the medium was aspirated and replaced with 30 μl/well of Calcium Assay Kit Component A Dye (Molecular Devices; Sunnyvale, Calif.) dissolved in 30 ml/bottle of assay buffer (2.5 mM probenecid, 20 mM Hepes, and 1× Hanks' Balanced Salt Solution (Invitrogen; Carlsbad, Calif.) (138 mM NaCl, 5.3 mM KCl, 1.3 mM CaCl2, 0.49 mM MgCl2, 0.41 mM MgSO4, 0.44 mM KH2PO4, 0.34 mM Na2HPO4) pH 7.4. Plates were incubated in the dye for 1 hr at 37° C. Dilutions were made in assay buffer as 2× stocks and added to 96-well drug plates. Fluorometric imaging was performed using a FlexStation II plate reader (Molecular Devices) reading the plate at 1.5 second intervals for 1 min. After establishing a fluorescent baseline (excitation at 485 nm and emission at 525 nm, using a […] cutoff), the FlexStation II automatically transferred 30 μl of 2× drug stocks from the drug plate to the cell plate at the 20 second time point with reading for another 40 seconds. Peak relative fluorescence units (RFU) were subtracted from baseline RFUs using SoftMax Pro (Molecular Devices) and values were imported into GraphPad Prism version 4.03 (GraphPad Software; San Diego, Calif.) for analysis. Ca++-flux studies are very convenient for initial screening of large numbers of compounds for agonist activity.
Compounds are resuspended in DMSO at a stock concentration of 2-15 mM and, for a typical agonist screen, are diluted in assay buffer to a final 2× concentration of 20 μM into drugs plates. Compounds are added in duplicate to cell plates using the FlexStation II as described to identify agonists, defined as having >10% of maximal 5-HT response. […] Generally, screens are performed twice with each determination being made in duplicate. Typical Z′-factor (Zhang et al., 1999) values for agonist screens ranged from 0.61-0.79 (5-HT2AR), 0.42-0.81 (5-HT2BR) and 0.38-0.72 (5-HT2CR); these Z′-factor values are adequate for screening studies in which N=2 determinations are made and the screens replicated for a total of N=4 determinations.
(§4) Compounds identified by primary screens to be agonists are subsequently used in concentration-response experiments to verify the initial observations and obtain agonist potencies. Concentration-response studies are performed in triplicate or quadruplicate at each concentration and repeated three times. Baseline-subtracted RFU values imported into GraphPad Prism are analyzed by non-linear regression to obtain pEC50 values, and normalized to maximal 5-HT response to obtain relative efficacies.

human 5-HT2C receptor = molecular target: T2, human 5-HT2C receptor (Homo sapiens, UniProt P28335); experiment: Functional activity by Ca++-flux (intracellular calcium mobilization), 5-HT2C; settings: for 2A/2C ratio: ratio of EC50 5-HT2A / 5-HT2C; for 2B/2C ratio: ratio of EC50 5-HT2B / 5-HT2C; for Emax at the 5-HT2C receptor: partial agonist activity
T2 construct: expressed in transfected cells; host or cells: HEK-293
T2 sequence (P28335 33-458): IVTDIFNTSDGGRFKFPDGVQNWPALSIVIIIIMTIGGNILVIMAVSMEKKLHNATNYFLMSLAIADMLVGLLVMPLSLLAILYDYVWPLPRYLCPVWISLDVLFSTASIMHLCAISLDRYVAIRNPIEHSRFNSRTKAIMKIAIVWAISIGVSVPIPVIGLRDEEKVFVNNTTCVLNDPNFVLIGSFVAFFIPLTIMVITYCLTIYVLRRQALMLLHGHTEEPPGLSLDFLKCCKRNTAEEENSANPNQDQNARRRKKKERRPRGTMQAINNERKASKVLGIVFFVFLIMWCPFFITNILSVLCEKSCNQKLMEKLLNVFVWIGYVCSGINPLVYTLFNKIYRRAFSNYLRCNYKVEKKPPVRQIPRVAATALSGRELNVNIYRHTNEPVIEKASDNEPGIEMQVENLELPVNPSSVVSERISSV
Description: as §1, with “The results are summarized in Table 1 where EC50 for different receptors are given (nM) and the ratio of activities 2A/2C and 2B/2C are also given.” left out
as §2, §3
Compounds are resuspended in DMSO at a stock concentration of 2-15 mM and, for a typical agonist screen, are diluted in assay buffer to a final 2× concentration of 20 μM into drugs plates. Compounds are added in duplicate to cell plates using the FlexStation II as described to identify agonists, defined as having >10% of maximal 5-HT response. […] Generally, screens are performed twice with each determination being made in duplicate.
as §4

human 5-HT2B receptor = molecular target: T3, human 5-HT2B receptor (Homo sapiens, UniProt P41595); experiment: Functional activity by Ca++-flux (intracellular calcium mobilization), 5-HT2B; settings: Ca++-flux, HEK-293 cells; NA = not active; read-out: 5-HT2B human EC50
T3 construct: expressed in transfected cells; host or cells: HEK293 (ATCC CRL-1573), retroviral infection with pBabepuro-FLAG-h5-HT2BR, polyclonal line

[1] = Ca++-flux, HEK-293 cells, NA = not active, read-out: 5-HT2C human EC50

T1 sequence (P28223 whole entry): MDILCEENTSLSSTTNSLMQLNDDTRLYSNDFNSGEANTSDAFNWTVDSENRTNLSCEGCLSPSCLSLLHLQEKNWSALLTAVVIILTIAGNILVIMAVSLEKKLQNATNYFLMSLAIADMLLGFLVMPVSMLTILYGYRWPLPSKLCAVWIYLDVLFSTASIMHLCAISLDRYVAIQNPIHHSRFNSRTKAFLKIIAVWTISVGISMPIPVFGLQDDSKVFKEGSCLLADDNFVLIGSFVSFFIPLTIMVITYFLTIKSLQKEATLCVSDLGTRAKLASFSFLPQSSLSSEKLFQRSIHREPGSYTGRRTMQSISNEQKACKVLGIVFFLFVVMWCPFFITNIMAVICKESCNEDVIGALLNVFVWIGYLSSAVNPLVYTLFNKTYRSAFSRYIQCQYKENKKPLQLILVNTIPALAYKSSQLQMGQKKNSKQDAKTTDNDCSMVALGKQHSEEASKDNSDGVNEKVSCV
T3 sequence (P41595 whole entry): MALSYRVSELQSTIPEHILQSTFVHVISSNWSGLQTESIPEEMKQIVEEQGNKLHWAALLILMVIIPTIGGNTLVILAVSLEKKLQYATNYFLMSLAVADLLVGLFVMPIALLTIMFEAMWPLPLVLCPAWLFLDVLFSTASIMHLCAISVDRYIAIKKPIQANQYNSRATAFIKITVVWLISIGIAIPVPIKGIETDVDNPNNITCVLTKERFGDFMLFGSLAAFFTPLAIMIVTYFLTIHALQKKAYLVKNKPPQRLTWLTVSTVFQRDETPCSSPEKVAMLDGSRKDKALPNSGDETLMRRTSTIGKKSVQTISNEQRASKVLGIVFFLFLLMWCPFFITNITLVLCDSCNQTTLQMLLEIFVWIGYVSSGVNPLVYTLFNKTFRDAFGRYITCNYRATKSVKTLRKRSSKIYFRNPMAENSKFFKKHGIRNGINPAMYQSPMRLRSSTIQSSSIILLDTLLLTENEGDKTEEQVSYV

“trans-(±)-[2-(4′-Trifluoromethyl-biphenyl-3-yl)-cyclopropyl]-methylamine Hydrochloride [TKU-II-117]” gave an EC50 (human 5-HT2A receptor) of 277 µM, an EC50 (human 5-HT2C receptor; [1]) of 0.465 µM and a 2A/2C ratio (human 5-HT2C receptor) of 596.
Work on “trans-(±)-[2-(4′-Fluoro-biphenyl-4-yl)-cyclopropyl]-methylamine Hydrochloride [TKU-II-57]” yielded an EC50 (human 5-HT2B receptor) of 624 µM, an EC50 (human 5-HT2A receptor) of 1030 µM and an EC50 (human 5-HT2C receptor; [1]) of 10.2 µM. For the same molecule, the 2A/2C ratio (human 5-HT2C receptor) was 101.1 and the 2B/2C ratio (human 5-HT2C receptor) was 61.
Work on “trans-(±)-[2-(4′-Chloro-biphenyl-3-yl)-cyclopropyl]-methylamine Hydrochloride [TKU-II-116]” yielded an EC50 (human 5-HT2A receptor) of 4 µM, an EC50 (human 5-HT2C receptor; [1]) of 0.124 µM and a 2A/2C ratio (human 5-HT2C receptor) of 32.3.
For “trans-(±)-[2-(2-Fluoro-phenyl)-cyclopropyl]-methylamine Hydrochloride [TKU-II-100]”, the EC50 (human 5-HT2B receptor) was 0.0002 µM, the EC50 (human 5-HT2A receptor) was 0.00062 µM and the “activity at 5-HT2C receptor” value (human 5-HT2C receptor) was “good potency”. For the same molecule, the EC50 (human 5-HT2C receptor; [1]) was 0.00066 µM, the 2A/2C ratio (human 5-HT2C receptor) was 0.94 and the 2B/2C ratio (human 5-HT2C receptor) was 0.3.
For “trans-(±)-[2-(3-Bromo-phenyl)-cyclopropyl]-methylamine Hydrochloride [TKU-II-71]”, the EC50 (human 5-HT2B receptor) was 0.0192 µM, the EC50 (human 5-HT2A receptor) was 0.0635 µM and the “activity at 5-HT2C receptor” value (human 5-HT2C receptor) was “partial agonist activity”. For the same molecule, the EC50 (human 5-HT2C receptor; [1]) was 0.0065 µM, the “Emax at the 5-HT2C receptor” value (human 5-HT2C receptor) was 75% and the 2A/2C ratio (human 5-HT2C receptor) was 9.8. The 2B/2C ratio (human 5-HT2C receptor) was 2.9.
Work on “trans-(−)-(2-Phenyl-cyclopropyl)-methylamine Hydrochloride [TKU-II-115]” yielded an EC50 (human 5-HT2B receptor) of 1.54 µM, an EC50 (human 5-HT2A receptor) of 1.69 µM and an EC50 (human 5-HT2C receptor; [1]) of 0.28 µM. The 2A/2C ratio (human 5-HT2C receptor) was 6.02 and the 2B/2C ratio (human 5-HT2C receptor) was 5.49.
“trans-(±)-[2-(3-Fluoro-phenyl)-cyclopropyl]-methylamine Hydrochloride [TKU-II-99]” was tested, and the EC50 (human 5-HT2B receptor) was 4.68 µM, the EC50 (human 5-HT2A receptor) was 0.0634 µM and the EC50 (human 5-HT2C receptor; [1]) was 0.0632 µM. The 2A/2C ratio (human 5-HT2C receptor) was 1.0 and the 2B/2C ratio (human 5-HT2C receptor) was 74.
“trans-(±)-[2-(2-Bromo-phenyl)-cyclopropyl]-methylamine Hydrochloride [TKU-II-78]” was tested, and the EC50 (human 5-HT2B receptor) was 0.094 µM, the EC50 (human 5-HT2A receptor) was 0.0295 µM and the “activity at 5-HT2C receptor” value (human 5-HT2C receptor) was “partial agonist activity”. The EC50 (human 5-HT2C receptor; [1]) was 0.0018 µM, the “Emax at the 5-HT2C receptor” value (human 5-HT2C receptor) was 58% and the 2A/2C ratio (human 5-HT2C receptor) was 16.4. For the same molecule, the 2B/2C ratio (human 5-HT2C receptor) was 52.2.
In the case of “trans-(±)-[2-(4′-Chloro-biphenyl-4-yl)-cyclopropyl]-methylamine Hydrochloride [TKU-II-82]”, the EC50 (human 5-HT2B receptor) is reported as 3.54 µM, the EC50 (human 5-HT2A receptor) is reported as 199 µM and the “selectivity over the 5-HT2A receptor” value (human 5-HT2C receptor; 5-HT2C versus 5-HT2A) is reported as “good selectivity”. For the same molecule, the EC50 (human 5-HT2C receptor; [1]) was 0.429 µM, the 2A/2C ratio (human 5-HT2C receptor) was 464 and the 2B/2C ratio (human 5-HT2C receptor) was 8.3.
In the case of `CNC[C@@H]1C[C@H]1c1ccccc1` (racemic) [TKU-II-39, trans-(±)-Methyl-(2-phenyl-cyclopropylmethyl)-amine], the EC50 (human 5-HT2B receptor) is reported as 0.98 µM, the EC50 (human 5-HT2A receptor) is reported as 3.71 µM and the EC50 (human 5-HT2C receptor; [1]) is reported as 0.718 µM. For the same molecule, the 2A/2C ratio (human 5-HT2C receptor) was 5.18 and the 2B/2C ratio (human 5-HT2C receptor) was 1.36.
`N[C@@H]1C[C@H]1c1ccccc1` (relative stereo) [Tranylcypromine, trans-2-phenylcyclopropylamine, reference compound] showed an EC50 (human 5-HT2C receptor) of 0.271 µM.
